Source: publication PMC8617627, “Novel DYRK1A Inhibitor Rescues Learning and Memory Deficits in a Mouse Model of Down Syndrome” (Pharmaceuticals, 2021)
Like-named read-outs stand apart in the source and are kept apart here.

Key:
Experiment in all cases: Kinase profile (33P ATP filter binding)
Assay type in all cases: biochemical
Settings in all cases: read-out: Remaining protein kinase activity
CK1δ = CK1δ (Homo sapiens, UniProt P48730)
HIPK1 = HIPK1 (Homo sapiens, UniProt Q86Z02)
IKKb = biological target: T1, IKKb (Homo sapiens, UniProt O14920)
T1 sequence (O14920 1-756): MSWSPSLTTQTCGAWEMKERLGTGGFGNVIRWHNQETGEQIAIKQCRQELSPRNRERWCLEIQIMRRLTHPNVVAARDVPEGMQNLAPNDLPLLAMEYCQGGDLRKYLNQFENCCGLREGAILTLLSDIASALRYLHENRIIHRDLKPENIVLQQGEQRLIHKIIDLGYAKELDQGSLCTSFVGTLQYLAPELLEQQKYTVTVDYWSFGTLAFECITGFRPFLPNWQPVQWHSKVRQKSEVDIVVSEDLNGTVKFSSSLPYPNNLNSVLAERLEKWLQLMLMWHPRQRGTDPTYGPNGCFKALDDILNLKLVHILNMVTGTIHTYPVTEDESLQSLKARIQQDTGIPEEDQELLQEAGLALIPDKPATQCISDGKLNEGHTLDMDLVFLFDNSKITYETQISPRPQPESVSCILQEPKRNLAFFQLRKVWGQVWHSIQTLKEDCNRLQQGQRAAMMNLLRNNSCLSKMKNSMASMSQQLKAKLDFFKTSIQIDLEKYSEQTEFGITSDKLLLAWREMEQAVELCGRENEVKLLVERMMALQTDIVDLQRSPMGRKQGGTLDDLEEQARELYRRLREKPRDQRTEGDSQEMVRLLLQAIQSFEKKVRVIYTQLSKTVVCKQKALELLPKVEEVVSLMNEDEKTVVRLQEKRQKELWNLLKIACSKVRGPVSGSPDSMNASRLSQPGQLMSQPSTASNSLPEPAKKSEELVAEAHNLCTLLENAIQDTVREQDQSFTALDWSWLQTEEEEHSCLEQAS

PINK = biological target: T2, PINK (Tribolium castaneum, UniProt D6WMX4)
T2 sequence (D6WMX4 1-570): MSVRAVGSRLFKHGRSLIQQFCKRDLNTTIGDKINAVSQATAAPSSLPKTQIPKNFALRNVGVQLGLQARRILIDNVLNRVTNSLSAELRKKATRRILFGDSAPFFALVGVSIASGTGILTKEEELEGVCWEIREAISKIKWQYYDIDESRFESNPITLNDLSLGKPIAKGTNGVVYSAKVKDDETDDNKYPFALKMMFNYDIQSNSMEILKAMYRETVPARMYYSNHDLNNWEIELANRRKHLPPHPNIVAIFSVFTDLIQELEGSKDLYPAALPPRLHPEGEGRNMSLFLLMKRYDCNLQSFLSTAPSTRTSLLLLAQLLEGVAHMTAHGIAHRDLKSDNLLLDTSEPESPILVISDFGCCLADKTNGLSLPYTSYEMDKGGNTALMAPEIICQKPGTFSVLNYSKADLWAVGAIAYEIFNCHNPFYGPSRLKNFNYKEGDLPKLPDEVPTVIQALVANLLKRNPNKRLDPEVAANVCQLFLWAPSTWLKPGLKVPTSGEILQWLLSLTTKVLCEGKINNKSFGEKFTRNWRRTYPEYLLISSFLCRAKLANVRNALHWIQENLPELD

TIE2 = TIE2 (Homo sapiens, UniProt Q02763)
TSSK1 = biological target: T3, TSSK1 (Homo sapiens, UniProt Q9BXA7)
T3 sequence (Q9BXA7 1-367): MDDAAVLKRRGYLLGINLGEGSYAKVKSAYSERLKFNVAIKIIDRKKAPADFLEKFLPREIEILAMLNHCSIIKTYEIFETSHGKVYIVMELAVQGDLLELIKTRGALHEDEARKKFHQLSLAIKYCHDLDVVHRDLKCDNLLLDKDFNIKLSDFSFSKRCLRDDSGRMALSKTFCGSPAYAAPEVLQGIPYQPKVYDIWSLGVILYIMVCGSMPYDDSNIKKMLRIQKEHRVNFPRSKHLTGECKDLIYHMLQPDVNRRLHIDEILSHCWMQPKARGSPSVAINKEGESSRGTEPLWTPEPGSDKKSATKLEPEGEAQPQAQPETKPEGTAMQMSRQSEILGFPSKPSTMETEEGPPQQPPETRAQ

Sequence of CK1δ (P48730 whole entry): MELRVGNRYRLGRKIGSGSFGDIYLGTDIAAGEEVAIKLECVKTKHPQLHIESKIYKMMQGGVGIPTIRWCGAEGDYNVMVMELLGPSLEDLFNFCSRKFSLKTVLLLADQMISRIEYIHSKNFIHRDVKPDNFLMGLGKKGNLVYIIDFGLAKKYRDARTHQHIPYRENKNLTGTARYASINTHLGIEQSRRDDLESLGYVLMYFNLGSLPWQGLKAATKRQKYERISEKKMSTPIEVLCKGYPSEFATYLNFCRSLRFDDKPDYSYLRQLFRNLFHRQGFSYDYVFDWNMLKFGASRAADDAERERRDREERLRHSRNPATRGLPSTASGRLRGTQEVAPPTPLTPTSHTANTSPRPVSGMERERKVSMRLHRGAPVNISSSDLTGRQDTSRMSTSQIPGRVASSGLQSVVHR
Sequence of HIPK1 (Q86Z02 whole entry): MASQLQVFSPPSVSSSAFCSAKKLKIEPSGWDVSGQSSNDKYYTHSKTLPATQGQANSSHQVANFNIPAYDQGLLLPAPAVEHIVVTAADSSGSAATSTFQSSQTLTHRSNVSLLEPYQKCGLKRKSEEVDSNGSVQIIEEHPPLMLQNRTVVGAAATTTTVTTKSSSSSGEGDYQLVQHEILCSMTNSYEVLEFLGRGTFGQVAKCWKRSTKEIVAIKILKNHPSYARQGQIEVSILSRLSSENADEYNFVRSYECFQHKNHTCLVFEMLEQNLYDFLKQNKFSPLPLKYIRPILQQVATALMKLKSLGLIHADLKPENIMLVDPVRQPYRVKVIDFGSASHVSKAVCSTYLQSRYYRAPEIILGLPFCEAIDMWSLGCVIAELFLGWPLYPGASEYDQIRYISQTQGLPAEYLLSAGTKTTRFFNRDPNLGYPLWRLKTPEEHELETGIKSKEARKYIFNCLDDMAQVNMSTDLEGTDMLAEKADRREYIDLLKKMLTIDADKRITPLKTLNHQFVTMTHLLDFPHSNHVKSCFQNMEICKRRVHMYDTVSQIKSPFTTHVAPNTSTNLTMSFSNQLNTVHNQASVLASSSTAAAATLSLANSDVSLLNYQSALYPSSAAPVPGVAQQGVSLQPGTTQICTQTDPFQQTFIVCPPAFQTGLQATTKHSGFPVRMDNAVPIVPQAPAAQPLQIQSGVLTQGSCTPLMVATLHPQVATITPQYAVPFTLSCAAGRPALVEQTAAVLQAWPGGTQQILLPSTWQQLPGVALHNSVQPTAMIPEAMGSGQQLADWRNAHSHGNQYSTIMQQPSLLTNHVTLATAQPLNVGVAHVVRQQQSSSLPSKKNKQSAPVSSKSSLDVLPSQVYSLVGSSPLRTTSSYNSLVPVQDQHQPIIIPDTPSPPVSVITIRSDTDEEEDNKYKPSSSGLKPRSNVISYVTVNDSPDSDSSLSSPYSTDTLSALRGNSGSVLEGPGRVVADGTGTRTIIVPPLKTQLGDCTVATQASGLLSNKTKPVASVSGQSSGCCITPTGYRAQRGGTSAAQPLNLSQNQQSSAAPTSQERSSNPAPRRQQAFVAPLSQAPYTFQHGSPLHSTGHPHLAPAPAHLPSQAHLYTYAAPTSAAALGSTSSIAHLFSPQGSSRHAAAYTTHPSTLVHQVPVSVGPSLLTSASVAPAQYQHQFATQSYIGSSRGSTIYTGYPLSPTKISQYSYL
Sequence of TIE2 (Q02763 23-1124): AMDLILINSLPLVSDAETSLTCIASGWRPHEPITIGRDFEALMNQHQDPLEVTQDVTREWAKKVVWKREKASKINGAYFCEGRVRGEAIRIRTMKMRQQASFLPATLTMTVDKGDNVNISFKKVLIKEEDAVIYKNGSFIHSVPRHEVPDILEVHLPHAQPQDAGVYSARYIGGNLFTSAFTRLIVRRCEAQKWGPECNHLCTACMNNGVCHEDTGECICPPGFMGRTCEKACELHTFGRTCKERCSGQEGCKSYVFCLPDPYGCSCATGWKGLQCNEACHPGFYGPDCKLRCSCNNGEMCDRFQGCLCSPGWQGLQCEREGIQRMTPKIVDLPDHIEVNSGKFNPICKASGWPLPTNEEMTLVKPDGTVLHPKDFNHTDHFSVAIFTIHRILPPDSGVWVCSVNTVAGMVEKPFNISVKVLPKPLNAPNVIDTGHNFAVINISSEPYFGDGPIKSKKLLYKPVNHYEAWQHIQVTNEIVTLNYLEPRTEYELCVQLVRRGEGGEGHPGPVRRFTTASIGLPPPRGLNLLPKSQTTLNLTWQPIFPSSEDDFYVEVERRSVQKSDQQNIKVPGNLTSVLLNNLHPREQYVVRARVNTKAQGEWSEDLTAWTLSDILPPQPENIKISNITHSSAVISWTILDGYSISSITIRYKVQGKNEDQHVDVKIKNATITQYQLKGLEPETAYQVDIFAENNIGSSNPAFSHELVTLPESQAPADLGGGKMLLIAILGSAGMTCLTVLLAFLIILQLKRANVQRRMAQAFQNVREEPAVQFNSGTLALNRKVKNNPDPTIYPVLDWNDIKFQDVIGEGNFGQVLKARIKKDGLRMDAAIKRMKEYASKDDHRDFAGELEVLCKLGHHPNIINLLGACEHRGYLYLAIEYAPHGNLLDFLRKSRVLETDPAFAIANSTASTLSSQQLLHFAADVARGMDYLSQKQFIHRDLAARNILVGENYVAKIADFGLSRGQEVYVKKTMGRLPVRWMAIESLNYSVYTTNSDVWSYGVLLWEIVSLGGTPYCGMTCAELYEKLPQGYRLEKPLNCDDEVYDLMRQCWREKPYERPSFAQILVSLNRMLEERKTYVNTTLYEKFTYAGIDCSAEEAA

COc1ccc2sc(-c3cncc(NC(C)=O)c3)nc2c1 [PST-001, N-(5-(5-Methoxybenzo[d]thiazol-2-yl)pyridin-3-yl)acetamide]
remaining activity at 1 µM (CK1δ): 99% | remaining activity at 100 µM (CK1δ): 59% | remaining activity at 1 µM (HIPK1): 113% | remaining activity at 100 µM (HIPK1): 113% | remaining activity at 1 µM (IKKb): 111% | remaining activity at 100 µM (IKKb): 108% | remaining activity at 1 µM (PINK): 119% | remaining activity at 100 µM (PINK): 118% | remaining activity at 1 µM (TIE2): 129% | remaining activity at 100 µM (TIE2): 133% | remaining activity at 1 µM (TSSK1): 124% | remaining activity at 100 µM (TSSK1): 114%

COc1ccc2sc(-c3cncc(N)c3)nc2c1 [compound 1, 5-(5-Methoxybenzo[d]thiazol-2-yl)pyridin-3-amine]
remaining activity at 1 µM (CK1δ; CK1δ, 1 μM): 107% | remaining activity at 100 µM (CK1δ; CK1δ, 100 μM): 13% | remaining activity at 1 µM (HIPK1; HIPK1, 1 μM): 116% | remaining activity at 100 µM (HIPK1; HIPK1, 100 μM): 36% | remaining activity at 1 µM (IKKb; IKKb, 1 μM): 105% | remaining activity at 100 µM (IKKb; IKKb, 100 μM): 38% | remaining activity at 1 µM (PINK): 121% | remaining activity at 100 µM (PINK): 114% | remaining activity at 1 µM (TIE2; TIE2, 1 μM): 135% | remaining activity at 100 µM (TIE2; TIE2, 100 μM): 85% | remaining activity at 1 µM (TSSK1; TSSK1, 1 μM): 107% | remaining activity at 100 µM (TSSK1; TSSK1, 100 μM): 70%
